Reference: patent US20050255504A1, “Method of detecting an increased susceptibility to breast cancer” (priority 2004, published 2005)
Positions count from the first letter of the chain named. One block for each molecule: values may come before it.

Columns and labels:
COMT = target: T1, COMT (Homo sapiens, UniProt P21964); assay: Assay of COMT activity: methylation of catechol estrogens by purified recombinant His-COMT; assay type: biochemical; settings: for pattern of the rates of methylation versus substrate concentration: substrate of COMT, FIG. 9; for formation as product of COMT methylation of 4-OHE2 / 4-OHE1: GC/MS detection of product
T1 construct: made in house; host or cells: Escherichia coli DH5alphaF'Iq
T1 sequence (P21964 1-221 isoform P21964-2): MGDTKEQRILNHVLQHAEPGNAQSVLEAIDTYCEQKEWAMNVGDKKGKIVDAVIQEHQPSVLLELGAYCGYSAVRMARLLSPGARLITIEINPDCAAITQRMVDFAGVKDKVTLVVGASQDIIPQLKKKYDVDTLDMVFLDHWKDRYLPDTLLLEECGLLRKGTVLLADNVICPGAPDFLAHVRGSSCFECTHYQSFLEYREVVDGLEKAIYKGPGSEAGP
Procedure: Assay of COMT Activity. Purified recombinant His-COMT (300 pmol) was reconstituted in 0.5 ml of 100 mM KPO4, pH 7.4, containing 5 mM MgCl2, 10 mM (β-mercaptoethanol, and 200 μM SAM. Reactions were initiated by adding varying concentrations of each individual catechol estrogen (2, 3, 6, 9, 12, 15, 20, 40, 60, 80, and 100 μM). Blanks contained all compounds except SAM. Reactions proceeded for 10 min at 37° C. with gentle shaking and then were terminated by addition of 2 ml CH2Cl2. To determine COMT activity in breast cancer cells, ZR-75 and MCF-7 cells were harvested at confluency and homogenized in 100 mM KP04, pH 7.4, 5 mM MgCl2, 10 mM β-mercaptoethanol. Following ultracentrifugation of the cell homogenate (110,000 g, 30 min, 4° C.), the supernatant cytosol was divided into aliquots for ICELISA, protein determination (BCA assay; Pierce, Rockford, Ill.), and COMT assay. The latter was carried out in the presence of 200 μM SAM and 100 μM catechol estrogen for 20 min at 37° C. and then terminated by addition of CH2Cl2. The concentration of endogenous catechol and methoxy estrogens was below the limit of detection by gas chromatography/mass spectrometry.
Extraction and Gas Chromatography/Mass Spectrometry Analysis of Catechol Estrogens. A deuterated internal standard (100 μl of 8 mg/liter E2-d4 in methanol) was added and all estrogens extracted into the CH2Cl2 by vortex mixing for 30 s. 1.5 ml of the CH2Cl2 fraction was evaporated to dryness under air and volatile TMS derivatives prepared by heating the residue with 100 μl of 50% NO-bis(trimethylsilyl)trifluoroacetamide/1% trimethyl chlorosilane in acetonitrile at 56° C. for 30 min. The TMS derivatives of the estrogen metabolites were separated by gas chromatography (H—P 5890, Hewlett-Packard, Wilmington, Del.) on a 5% phenyl methyl silicone stationary phase fused silica capillary column (30 m×0.2 mm×0.5 μm film, HP5; Hewlett-Packard). Helium carrier gas was used at a flow of 1 ml/min. The injector was operated at 250° C., with 2 μl injected in the splitless mode, with a purge (60 ml/min helium) time of 0.6 min. The oven temperature was held at 180° C. for 0.5 min, then raised at 6° C./min to 250° C. where it was held for 17 min, then raised to 300° C. at 8° C./min to give a total run time of 35.42 min. This program permitted adequate separation of a wide range of estrogen metabolites. Retention times (in min) for the TMS derivatives were E1 20.13, E2 and E2-d4 21.89, 4-MeOE1 23.52, 2-MeO-3-MeOE1 (underivatized) 23.75, 2-OH-3-MeOE1 24.87, 2-MeOE1 25.2, 4-MeOE2 25.78, 2-OHE1 and 2-MeO-3-MeOE2 26.19, 2-OH-3-MeOE2 26.9, 2-MeOE2 27.18, 4-OHE1 27.27, 6a-OHE2 27.29, 2-OHE2 27.44, 4-OHE2 28.06, E3 28.38. The E1 mass spectrometer (H—P 5970) was operated in the selected ion monitoring mode from 18 to 30 min. Ions monitored were TMS-E1 342, 257, 343; TMS2-E2-d4 420, 421, 287; TMS2-E2 416, 417, 285; TMS-4-MeOE1, TMS-2-OH-3-MeOE1, TMS-2-MeOE1 and TMS-3-MeO-4-OHE1 372, 373, 342; 2-MeO-3-MeOE1 314, 315, 229; TMS2-4-MeOE2, TMS2-2-OH-3-MeOE2, TMS2-2-MeOE2 and TMS2-3-MeO-4-OHE2 446, 447, 315; TMS2-2-OHE1 430, 431, 432; TMS-2-MeO-3-MeOE2 388, 389, 257; TMS2-4-OHE1 430, 431, 345; TMS2-6α-OHE2 414, 283, 309; TMS3-2-OHE2 and TMS3-4-OHE2 504, 505, 373; TMS3-E3 504, 505, 311 (FIG. 7). The instrument was calibrated by simultaneous preparation of an 11-point calibration over the range 0-22 nmol/tube of each compound. Sensitivity was determined to be between 0.02 and 0.04 nmol/tube (400-800 finol on column) for the various compounds. […] Absolute extraction efficiency for E2,2-OH-E2 and 4-OH-E2 at 3.5 nmol/tube was 119, 96, and 107% assessed by comparison to injections of spiked solvent samples onto the gas chromatograph. Internal standard added prior to extraction compensated for deviation from 100% recovery for all investigated compounds.
Statistical Analysis. […]

renal DNA = settings: hamster, in vivo; cited from earlier work
CYP1B1 = assay: Assay of CYP1B1 E2 hydroxylation activity (purified recombinant enzyme, GC/MS of products); assay type: biochemical, human; settings: E2 16a-hydroxylation
Procedure: Assay of CYP1B1 E2 Hydroxylation Activity. […] An NADPH-generating system consisting of 5 mM glucose 6-phosphate and 0.5 U of glucose-6-phosphate dehydrogenase/ml was added and reactions initiated by adding NADP+ to a final concentration of 0.5 mM. Reactions proceeded for 10 min at 37° C. with gentle shaking and then were terminated by addition of 2 ml CH2Cl2. Extraction and Gas Chromatography/Mass Spectrometry Analysis of E2 and Metabolites. […] Hewlett-Packard). Helium carrier gas was used at a flow of 1 ml/min. The injector was operated at 250° C., with […] injected in the splitless mode, with a purge (60 ml/min helium) time of 0.6 min. The oven temperature was held at 180° C. for 0.5 min, then raised at 6° C./min to 250° C. where it was held for 17 min, then raised to 300° C. at 8° C./min to give a total run time of 35.42 min. […] The E1 mass spectrometer (H-P 5970) was operated in the selected ion monitoring mode from 18 to 34 min. […] TMS2-E2 416, 285, 326; […]2 504, 373, 325; TMS3-16_-OH-E2 345, 311, 504. […] Internal standard added prior to extraction compensated for deviation from 100% recovery. Statistical Analysis. Kinetic parameters (Km and kcat) were determined by nonlinear regression analysis using the computer program GraphPad PRISM (San Diego, Calif.).

Molecule: C[C@]12CC[C@@H]3c4ccc(O)c(O)c4CC[C@H]3[C@@H]1CC[C@@H]2O [Variant 4-OHE2]
- levels of the oxidized base 8-hydroxy-deoxyguanosine in renal DNA (renal DNA): significantly increased
- pattern of the rates of methylation versus substrate concentration (COMT): sigmoid curve pattern

B1: Variant 4: recombinant CYP1B1 variant: 48Arg, 119Ala, 432Val, 453Ser (protein, UniProt Q16678 1-543, looked up, variant N453S)
Cytochrome P450 1B1: MGTSLSPNDPWPLNPLSIQQTTLLLLLSVLATVHVGQRLLRQRRRQLRSAPPGPFAWPLIGNAAAVGQAAHLSFARLARRYGDVFQIRLGSCPIVVLNGERAIHQALVQQGSAFADRPAFASFRVVSGGRSMAFGHYSEHWKVQRRAAHSMMRNFFTRQPRSRQVLEGHVLSEARELVALLVRGSADGAFLDPRPLTVVAVANVMSAVCFGCRYSHDDPEFRELLSHNEEFGRTVGAGSLVDVMPWLQYFPNPVRTVFREFEQLNRNFSNFILDKFLRHCESLRPGAAPRDMMDAFILSAEKKAAGDSHGGGARLDLENVPATITDIFGASQDTLSTALQWLLLLFTRYPDVQTRVQAELDQVVGRDRLPCMGDQPNLPYVLAFLYEAMRFSSFVPVTIPHATTANTSVLGYHIPKDTVVFVNQWSVNHDPLKWPNPENFDPARFLDKDGLISKDLTSRVMIFSVGKRRCIGEELSKMQLFLFISILAHQCDFRANPNEPAKMNFSYGLTIKPKSFKVNVTLRESMELLDSAVQNLQAKETCQ
- 16a-OH-Estradiol kcat (CYP1B1): 0.0065 ± 0.00033 s⁻¹

B2: Variant 2: recombinant CYP1B1 variant: 48Arg, 119Ser, 432Val, 453Asn (protein, UniProt Q16678 1-543, looked up, variant A119S)
Cytochrome P450 1B1: B1 Cytochrome P450 1B1 with A119S, S453N
- 16a-OH-Estradiol kcat (CYP1B1): 0.00567 ± 0.00033 s⁻¹

B3: Variant 1: recombinant CYP1B1 variant: 48Gly, 119Ala, 432Val, 453Asn (protein, UniProt Q16678 1-543, looked up, variant R48G)
Cytochrome P450 1B1: B1 Cytochrome P450 1B1 with R48G, S453N
- 16a-OH-Estradiol kcat (CYP1B1): 0.00933 ± 0.00067 s⁻¹

B4: Wild type: purified recombinant His-tagged wild type CYP1B1: 48Arg, 119Ala, 432Val, 453Asn (protein)
chain: HHHHHHLLSVLATVHVGQRLLRQRRRQLRSAPPGPFAWPLIGNAAAVGQAAHLSFARLARRYGDVFQIRLGSCPIVVLNGERAIHQALVQQGSAFADRPAFASFRVVSGGRSMAFGHYSEHWKVQRRAAHSMMRNFFTRQPRSRQVLEGHVLSEARELVALLVRGSADGAFLDPRPLTVVAVANVMSAVCFGCRYSHDDPEFRELLSHNEEFGRTVGAGSLVDVMPWLQYFPNPVRTVFREFEQLNRNFSNFILDKFLRHCESLRPGAAPRDMMDAFILSAEKKAAGDSHGGGARLDLENVPATITDIFGASQDTLSTALQWLLLLFTRYPDVQTRVQAELDQVVGRDRLPCMGDQPNLPYVLAFLYEAMRFSSFVPVTIPHATTANTSVLGYHIPKDTVVFVNQWSVNHDPLKWPNPENFDPARFLDKDGLINKDLTSRVMIFSVGKRRCIGEELSKMQLFLFISILAHQCDFRANPNEPAKMNFSYGLTIKPKSFKVNVTLRESMELLDSAVQNLQAKETCQ
- 16a-OH-Estradiol kcat (CYP1B1): 0.005 ± 0.00033 s⁻¹
- 16a-OH-Estradiol kcat (CYP1B1; listed as Wild type CYP1B1): 0.005 ± 0.00033 s⁻¹
- 16a-OH-Estradiol kcat (CYP1B1; listed as wild type CYP1B1): 0.005 ± 0.00033 s⁻¹

Now from value to molecule, other results behind:

- pattern of the rates of methylation versus substrate concentration (COMT): typical hyperbolic patterns
Molecule: C[C@]12CC[C@@H]3c4cc(O)c(O)cc4CC[C@H]3[C@@H]1CCC2=O [Variant 2-OHE1]

- pattern of the rates of methylation versus substrate concentration (COMT): typical hyperbolic patterns
Molecule: C[C@]12CC[C@@H]3c4cc(O)c(O)cc4CC[C@H]3[C@@H]1CC[C@@H]2O [Variant 2-OHE2]
- levels of the oxidized base 8-hydroxy-deoxyguanosine in renal DNA (renal DNA): did not cause oxidative DNA damage

- formation as product of COMT methylation of 4-OHE2 / 4-OHE1 (COMT): not observed
Molecule: COc1ccc2c(c1O)CC[C@@H]1[C@@H]2CC[C@]2(C)C(=O)CC[C@@H]12 [Variant 3-MeO-4-OHE1]

- formation as product of COMT methylation of 4-OHE2 / 4-OHE1 (COMT): not observed
Molecule: COc1ccc2c(c1O)CC[C@@H]1[C@@H]2CC[C@]2(C)[C@@H](O)CC[C@@H]12 [Variant 3-MeO-4-OHE2]

- pattern of the rates of methylation versus substrate concentration (COMT): sigmoid curve pattern
Molecule: C[C@]12CC[C@@H]3c4ccc(O)c(O)c4CC[C@H]3[C@@H]1CCC2=O [Variant 4-OHE1]
- levels of the oxidized base 8-hydroxy-deoxyguanosine in renal DNA (renal DNA): significantly increased
